Measurements taken from doi:10.1101/2025.01.13.632836v7 (biorxiv, 2026).

Target: hERG potassium channel (Homo sapiens, UniProt Q12809)
Experiment: fluorescence polarization, fluorescent tracer displacement
Type: binding

Chain of hERG potassium channel (Q12809 whole entry): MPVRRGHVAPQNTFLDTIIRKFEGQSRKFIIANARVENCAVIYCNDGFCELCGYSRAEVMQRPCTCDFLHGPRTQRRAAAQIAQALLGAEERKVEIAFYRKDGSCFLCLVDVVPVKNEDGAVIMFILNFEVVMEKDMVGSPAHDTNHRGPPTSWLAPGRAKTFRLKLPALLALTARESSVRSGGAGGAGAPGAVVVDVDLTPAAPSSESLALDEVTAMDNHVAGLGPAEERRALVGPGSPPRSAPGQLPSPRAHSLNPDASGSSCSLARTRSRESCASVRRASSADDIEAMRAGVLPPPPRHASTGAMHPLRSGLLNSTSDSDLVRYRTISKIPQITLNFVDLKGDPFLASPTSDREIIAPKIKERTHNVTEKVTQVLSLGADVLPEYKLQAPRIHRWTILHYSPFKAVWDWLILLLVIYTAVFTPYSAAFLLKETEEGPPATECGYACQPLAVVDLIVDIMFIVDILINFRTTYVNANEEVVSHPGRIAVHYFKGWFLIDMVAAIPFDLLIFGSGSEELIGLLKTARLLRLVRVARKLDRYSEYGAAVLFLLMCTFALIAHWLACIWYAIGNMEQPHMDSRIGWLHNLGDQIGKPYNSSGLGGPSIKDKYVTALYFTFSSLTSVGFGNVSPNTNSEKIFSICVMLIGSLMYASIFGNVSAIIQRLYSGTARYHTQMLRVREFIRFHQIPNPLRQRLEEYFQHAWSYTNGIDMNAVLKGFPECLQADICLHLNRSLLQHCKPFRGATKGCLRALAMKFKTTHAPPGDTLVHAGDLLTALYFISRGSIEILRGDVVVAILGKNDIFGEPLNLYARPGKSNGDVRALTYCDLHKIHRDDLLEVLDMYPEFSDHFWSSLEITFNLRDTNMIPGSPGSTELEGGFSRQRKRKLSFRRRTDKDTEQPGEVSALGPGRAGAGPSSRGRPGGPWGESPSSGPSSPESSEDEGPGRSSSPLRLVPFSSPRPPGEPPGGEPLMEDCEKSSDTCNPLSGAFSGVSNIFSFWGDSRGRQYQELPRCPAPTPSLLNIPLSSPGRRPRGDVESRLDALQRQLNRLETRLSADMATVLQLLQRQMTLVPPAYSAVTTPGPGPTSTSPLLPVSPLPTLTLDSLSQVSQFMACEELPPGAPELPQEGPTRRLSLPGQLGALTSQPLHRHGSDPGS

Compound: Cc1c(-c2ccc(O)cc2)n(Cc2ccc(OCCN3CCCCC3)cc2)c2ccc(O)cc12 [MDL-001]
- IC50: 13 µM
